Data as given in patent US10245261B2, “Substituted indol-5-ol derivatives and their therapeutic applications” (NantBioScience, Inc., priority 2013, dated 2019).

Key:
[1] = test system: human MV411 human acute myelogenous leukemia (AML) xenograft; assay: AML xenograft model in female SCID mice; type: in vivo, mouse
Experimental: The objective of the first study was to evaluate antitumor activities of the novel multiple-kinase inhibitor NTW-3475 against human MV411 human acute myelogenous leukemia (AML) xenograft model in female SCID mice.
Four or six animals were randomly assigned to each study group. Each animal was injected subcutaneously in the left and right flank area with 0.1 ml of 1.0×10^8 MV411 cells per mL.
(§1) Each test or control animal was placed on a 5-day on, two-day off for two cycles of vehicle negative control or 25, 50 mg/kg of NTW-3475. Tumor growth was measured with a digital hand held caliper twice weekly (once tumor emerges) prior to the first dosing and then two to three times weekly until euthanized. Animals were weighed prior to tumor cell injection, prior to dosing, two to three times weekly with tumor growth measurements, and prior to euthanasia.
The objective of the first study was to evaluate antitumor activities of the novel multiple-kinase inhibitor Compounds 11, 68, and 82 against human MV411 human acute myelogenous leukemia (AML) xenograft model in female SCID mice.
as §1, with “compound.” for “NTW-3475.”

KU812 = assay: CellTiterBlue cell growth inhibition; type: cell-based; conditions: Homo sapiens; KU812, 72 hours
Experimental: (§2) This example illustrated the proliferating cell growth inhibition of selected compounds from this invention. To do this, the cells were seeded into fresh Iscove's growth medium at a density of 0.4e6 cells/ml and grown in log phase for 24 hr. Cells were then resuspended in their fresh respective growth media at 0.1e^6 cells/ml and plated into 384 well black, clear-bottom microplates at 36 ul/well. Test compounds and controls were initially dissolved in DMSO at the desired concentration, then serially diluted to the assay buffer. These solutions were added and cells were incubated for 72 hours at 37° C. CellTiterBlue (Promega cat# G7572) was added on the Beckman FX. Plates were returned to the 37° C. CO2 incubator for 4 hr and then fluorescence was determined on the Victor plate reader. Data were processed using Microsoft Excel, and GI50 values were generated using Prism (GraphPad Software, San Diego, Calif.).

RS4.11 = assay: CellTiterBlue cell growth inhibition; type: cell-based; conditions: Homo sapiens; RS4.11, 72 hours
Experimental: as §2

Abl(Y253F)(h) = Abl(Y253F)(h) (Homo sapiens, UniProt P00519, Y253F); assay: KinaseProfiler kinase assay; type: biochemical
AN3.CA = assay: CellTiterBlue cell growth inhibition; type: cell-based; conditions: Homo sapiens, 72 hours
Experimental: as §2

TT = assay: CellTiterBlue cell growth inhibition; type: cell-based; conditions: Homo sapiens, 72 hours
Experimental: as §2

Kato III = assay: CellTiterBlue cell growth inhibition; type: cell-based; conditions: Homo sapiens, 72 hours
Experimental: as §2

[2] = test system: human K562 chronic myelogenous leukemia (CML) xenograft; assay: CML xenograft model in female SCID mice; type: in vivo, mouse
Experimental: The objective of the second study was to evaluate antitumor activities of novel multiple-kinase inhibitor NTW-3475 in human K562 chronic myelogenous leukemia (CML) xenograft model in female SCID mice.
Four to six animals were randomly assigned to study groups. Each animal was weighed, and then injected subcutaneously in the left and right flank area with 0.1 ml of 8.0×10^7 K562 cells per mL.
as §1, with “was” for “was placed”, “treatment schedule.” for “of vehicle negative control or 25, 50 mg/kg of NTW-3475.”
This example illustrated antitumor activities of Compound 10 and 11 in human K562 chronic myelogenous leukemia (CML) xenograft model in female SCID mice.
On the appropriate days, each animal in an appropriate group will receive a specific amount of test article either at 75 or 100 mg/kg, and the dosing volume is 10 ml/kg by oral gavage as indicated. Dosing schedule will be once daily for 10 days (qd×10, 5 days on and 2 days off for 2 cycles).

Fgr(h) = Fgr(h) (Homo sapiens, UniProt P09769); assay: KinaseProfiler kinase assay; type: biochemical
GCK(h) = GCK(h) (Homo sapiens, UniProt Q12851); assay: KinaseProfiler kinase assay; type: biochemical
GSK3α(h) = GSK3α(h) (Homo sapiens, UniProt P49840); assay: KinaseProfiler kinase assay; type: biochemical
JNK2α2(h) = JNK2α2(h) (Homo sapiens, UniProt P45984); assay: KinaseProfiler kinase assay; type: biochemical
TAO1(h) = TAO1(h) (Homo sapiens, UniProt Q7L7X3); assay: KinaseProfiler kinase assay; type: biochemical
Summary of the method: (§3)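 Steps: compound diluted from DMSO into MOPS/BSA assay buffer; MgATP mix with [γ-33P]ATP added to start; 40 min incubation at room temperature; phosphoric acid stop; filtermat spotting, washing in 50 mM phosphoric acid and methanol; scintillation counting.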

MAPK2(h) = MAPK2(h) (Homo sapiens, UniProt P28482); assay: KinaseProfiler kinase assay; type: biochemical
Summary of the method: as §3

ARK5(h) = ARK5(h) (Homo sapiens, UniProt O60285); assay: KinaseProfiler kinase assay; type: biochemical
Summary of the method: as §3

Sequence of TAO1(h) (Q7L7X3 whole entry): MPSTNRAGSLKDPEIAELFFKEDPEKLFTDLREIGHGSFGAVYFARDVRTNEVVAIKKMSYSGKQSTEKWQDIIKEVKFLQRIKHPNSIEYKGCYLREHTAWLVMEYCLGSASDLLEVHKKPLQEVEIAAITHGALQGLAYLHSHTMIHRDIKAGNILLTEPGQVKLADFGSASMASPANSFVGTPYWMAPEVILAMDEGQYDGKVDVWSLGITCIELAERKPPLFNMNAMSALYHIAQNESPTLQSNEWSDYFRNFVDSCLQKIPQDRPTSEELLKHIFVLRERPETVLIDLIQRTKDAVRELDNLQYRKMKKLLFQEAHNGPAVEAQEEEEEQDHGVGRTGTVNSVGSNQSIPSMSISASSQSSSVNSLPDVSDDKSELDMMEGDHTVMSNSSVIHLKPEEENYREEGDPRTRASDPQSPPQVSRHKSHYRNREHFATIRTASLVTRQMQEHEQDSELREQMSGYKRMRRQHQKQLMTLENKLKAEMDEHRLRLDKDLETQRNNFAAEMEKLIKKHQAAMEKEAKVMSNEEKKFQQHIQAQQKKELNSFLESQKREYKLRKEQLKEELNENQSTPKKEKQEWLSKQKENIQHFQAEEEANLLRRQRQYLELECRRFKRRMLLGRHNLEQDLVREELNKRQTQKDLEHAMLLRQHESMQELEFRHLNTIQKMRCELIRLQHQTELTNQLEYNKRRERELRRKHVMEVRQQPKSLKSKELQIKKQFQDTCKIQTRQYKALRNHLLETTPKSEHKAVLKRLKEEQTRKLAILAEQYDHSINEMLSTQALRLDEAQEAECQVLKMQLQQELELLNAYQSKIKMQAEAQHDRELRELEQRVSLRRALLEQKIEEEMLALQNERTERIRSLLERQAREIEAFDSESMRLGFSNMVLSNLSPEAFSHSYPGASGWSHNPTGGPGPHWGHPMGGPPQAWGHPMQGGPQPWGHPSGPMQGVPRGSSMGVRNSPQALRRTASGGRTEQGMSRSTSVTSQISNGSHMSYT
Sequence of Fgr(h) (P09769 whole entry): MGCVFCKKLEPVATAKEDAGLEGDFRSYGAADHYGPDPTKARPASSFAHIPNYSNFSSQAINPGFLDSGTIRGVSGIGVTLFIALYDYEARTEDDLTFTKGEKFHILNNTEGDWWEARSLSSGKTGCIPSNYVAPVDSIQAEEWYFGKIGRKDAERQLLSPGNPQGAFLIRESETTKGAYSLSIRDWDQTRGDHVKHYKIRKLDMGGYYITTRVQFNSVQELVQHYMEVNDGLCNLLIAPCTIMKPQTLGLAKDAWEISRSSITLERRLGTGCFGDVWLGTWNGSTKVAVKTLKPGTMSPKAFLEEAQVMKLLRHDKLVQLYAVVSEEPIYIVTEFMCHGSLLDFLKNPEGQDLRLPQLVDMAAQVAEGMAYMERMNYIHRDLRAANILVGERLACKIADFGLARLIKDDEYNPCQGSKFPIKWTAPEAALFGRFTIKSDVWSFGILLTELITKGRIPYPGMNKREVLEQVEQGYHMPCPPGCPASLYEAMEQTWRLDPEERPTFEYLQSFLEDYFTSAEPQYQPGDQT
Sequence of GSK3α(h) (P49840 whole entry): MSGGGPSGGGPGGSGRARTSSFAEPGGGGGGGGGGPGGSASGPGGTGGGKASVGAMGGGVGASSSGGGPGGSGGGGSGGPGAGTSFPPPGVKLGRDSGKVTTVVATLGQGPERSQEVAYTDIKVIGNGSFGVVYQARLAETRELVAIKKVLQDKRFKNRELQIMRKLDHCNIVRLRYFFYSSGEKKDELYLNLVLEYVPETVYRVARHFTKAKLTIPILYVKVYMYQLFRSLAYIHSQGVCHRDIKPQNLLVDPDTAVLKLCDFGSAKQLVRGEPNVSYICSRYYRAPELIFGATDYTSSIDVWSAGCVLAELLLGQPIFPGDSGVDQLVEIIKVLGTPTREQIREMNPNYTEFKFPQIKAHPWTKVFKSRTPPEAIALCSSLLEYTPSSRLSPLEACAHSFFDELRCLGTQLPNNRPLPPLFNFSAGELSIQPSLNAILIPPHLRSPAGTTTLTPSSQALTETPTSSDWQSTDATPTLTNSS
Sequence of MAPK2(h) (P28482 whole entry): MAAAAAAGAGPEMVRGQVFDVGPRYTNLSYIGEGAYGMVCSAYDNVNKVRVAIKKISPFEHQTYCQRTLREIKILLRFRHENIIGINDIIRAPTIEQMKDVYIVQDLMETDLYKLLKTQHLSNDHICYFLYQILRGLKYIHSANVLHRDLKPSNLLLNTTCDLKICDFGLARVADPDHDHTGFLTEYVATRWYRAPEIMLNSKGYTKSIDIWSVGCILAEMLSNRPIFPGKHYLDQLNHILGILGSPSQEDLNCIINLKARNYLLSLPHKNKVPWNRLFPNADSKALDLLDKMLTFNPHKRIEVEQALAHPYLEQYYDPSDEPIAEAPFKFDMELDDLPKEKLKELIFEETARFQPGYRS
Sequence of JNK2α2(h) (P45984 whole entry): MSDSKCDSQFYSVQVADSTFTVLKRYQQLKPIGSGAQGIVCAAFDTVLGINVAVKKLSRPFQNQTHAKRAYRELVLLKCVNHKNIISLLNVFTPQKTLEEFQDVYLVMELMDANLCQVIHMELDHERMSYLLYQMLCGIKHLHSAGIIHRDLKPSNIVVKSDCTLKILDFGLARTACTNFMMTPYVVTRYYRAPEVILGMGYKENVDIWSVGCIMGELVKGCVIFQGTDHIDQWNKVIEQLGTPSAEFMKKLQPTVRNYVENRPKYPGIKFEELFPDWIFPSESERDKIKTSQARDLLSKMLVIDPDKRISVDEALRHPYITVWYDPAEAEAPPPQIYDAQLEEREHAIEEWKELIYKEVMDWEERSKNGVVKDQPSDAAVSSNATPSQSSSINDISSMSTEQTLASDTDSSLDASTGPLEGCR
Sequence of GCK(h) (Q12851 whole entry): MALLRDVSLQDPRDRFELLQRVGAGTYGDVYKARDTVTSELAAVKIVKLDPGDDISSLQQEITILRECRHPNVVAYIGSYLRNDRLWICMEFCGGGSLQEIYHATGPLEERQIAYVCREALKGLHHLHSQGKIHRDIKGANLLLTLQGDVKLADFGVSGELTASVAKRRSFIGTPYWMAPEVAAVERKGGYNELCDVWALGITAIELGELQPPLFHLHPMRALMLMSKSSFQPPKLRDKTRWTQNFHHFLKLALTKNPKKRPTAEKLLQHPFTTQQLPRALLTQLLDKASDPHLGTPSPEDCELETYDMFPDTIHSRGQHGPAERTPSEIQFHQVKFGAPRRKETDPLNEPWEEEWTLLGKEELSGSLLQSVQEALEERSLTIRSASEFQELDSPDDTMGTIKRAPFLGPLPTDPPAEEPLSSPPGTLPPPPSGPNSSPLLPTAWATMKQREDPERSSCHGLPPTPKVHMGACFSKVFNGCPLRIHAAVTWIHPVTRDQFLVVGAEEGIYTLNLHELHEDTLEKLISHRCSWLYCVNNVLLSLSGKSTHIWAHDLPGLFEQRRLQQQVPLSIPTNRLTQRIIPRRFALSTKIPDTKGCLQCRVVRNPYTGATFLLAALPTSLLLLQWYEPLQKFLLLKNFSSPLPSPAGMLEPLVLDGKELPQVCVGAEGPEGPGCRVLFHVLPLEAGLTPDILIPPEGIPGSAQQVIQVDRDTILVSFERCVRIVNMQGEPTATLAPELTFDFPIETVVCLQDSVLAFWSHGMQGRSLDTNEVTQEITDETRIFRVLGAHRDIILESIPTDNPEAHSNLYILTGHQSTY
Sequence of ARK5(h) (O60285 whole entry): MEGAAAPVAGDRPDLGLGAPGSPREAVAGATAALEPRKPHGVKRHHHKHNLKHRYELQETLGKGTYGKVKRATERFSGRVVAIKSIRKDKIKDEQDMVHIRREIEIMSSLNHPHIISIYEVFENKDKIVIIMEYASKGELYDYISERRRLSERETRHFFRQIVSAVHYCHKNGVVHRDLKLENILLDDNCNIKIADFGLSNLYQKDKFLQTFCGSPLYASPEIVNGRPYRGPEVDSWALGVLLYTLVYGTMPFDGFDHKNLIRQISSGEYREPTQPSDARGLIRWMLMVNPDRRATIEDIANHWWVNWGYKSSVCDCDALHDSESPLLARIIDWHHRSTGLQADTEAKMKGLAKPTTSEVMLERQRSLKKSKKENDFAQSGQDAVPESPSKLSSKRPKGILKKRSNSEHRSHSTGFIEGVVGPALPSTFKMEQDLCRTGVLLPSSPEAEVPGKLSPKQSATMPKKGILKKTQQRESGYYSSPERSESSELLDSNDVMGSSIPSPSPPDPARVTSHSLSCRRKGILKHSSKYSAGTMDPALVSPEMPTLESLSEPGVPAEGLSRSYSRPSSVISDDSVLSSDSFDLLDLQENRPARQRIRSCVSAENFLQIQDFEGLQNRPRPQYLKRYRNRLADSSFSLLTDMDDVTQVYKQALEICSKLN

Row | Structure (SMILES) | anti-tumor effect [1] | body weight change [1] | GI50 (KU812) [nM] | GI50 (RS4.11) [nM] | IC50 (Abl(Y253F)(h); Abl (Y253F)) [nM] | GI50 (AN3.CA) [nM] | GI50 (TT) [nM] | GI50 (Kato III) [nM] | anti-tumor effect [2] | inhibition at 0.1 µM (Abl(Y253F)(h)) [%] | inhibition at 0.1 µM (Fgr(h)) [%] | inhibition at 0.1 µM (GCK(h)) [%] | inhibition at 0.1 µM (GSK3α(h)) [%] | body weight change [2] | inhibition at 0.1 µM (JNK2α2(h)) [%] | inhibition at 0.1 µM (TAO1(h)) [%] | inhibition at 0.1 µM (MAPK2(h)) [%] | inhibition at 0.1 µM (ARK5(h)) [%]
1 | Cc1cc2c(F)c(Oc3nc(Nc4cc(C5CC5)[nH]n4)cc(N4CCNCC4)n3)cc(F)c2[nH]1 [Compound 82] | strong anti-tumor effect | minimal body weight lost | 0.75 | 2.65 | – | – | – | – | – | – | – | – | – | – | – | – | – | –
2 | C/C=C/c1cc(Nc2cc(N3CCN(C)CC3)nc(Oc3ccc4[nH]c(C)cc4c3F)n2)n[nH]1 [Compound 53] | – | – | 0.24 | 11 | 0.5 | 0.78 | 3.5 | 0.06 | – | – | – | – | – | – | – | – | – | –
3 | C/C=C/c1cc(Nc2cc(N3CCNCC3)nc(Oc3ccc4[nH]c(C)cc4c3F)n2)n[nH]1 [Compound 68] | strong anti-tumor effect | minimal body weight lost | – | – | – | 0.88 | 1.9 | – | – | – | – | – | – | – | – | – | – | –
4 | C/C=C/c1cc(Nc2cc(N3CCN(C)CC3)nc(Oc3cc(F)c4[nH]c(C)cc4c3F)n2)n[nH]1 [NTW-3456] | significant anti-tumor activity | – | – | – | – | – | – | – | significant anti-tumor activity | – | – | – | – | – | – | – | – | –
5 | C/C=C/c1cc(Nc2cc(N3CCN(CCO)CC3)nc(Oc3cc(F)c4[nH]c(C)cc4c3F)n2)n[nH]1 [Compound 88] | – | – | 0.71 | 3.71 | – | 0.31 | 3.4 | 0.06 | – | – | – | – | – | – | – | – | – | –
6 | Cc1cc2c(F)c(Oc3nc(Nc4cc(C5CC5)[nH]n4)cc(N4CCN(C)CC4)n3)ccc2[nH]1 [Compound 10] | – | – | < 0.025 | 3.22 | – | 3 | 8.3 | 0.07 | strong anti-tumor effect | 103 | 97 | 79 | 28 | no body weight lost | -20 | 24 | -8 | 99
7 | Cc1cc2c(F)c(Oc3nc(Nc4cc(C5CC5)[nH]n4)cc(N4CCNCC4)n3)ccc2[nH]1 [Compound 11, N-(5-cyclopropyl-1H-pyrazol-3-yl)-2-((4-fluoro-2-methyl-1H-indol-5-yl)oxy)-6-(piperazin-1-yl)pyrimidin-4-amine] | strong anti-tumor effect | minimal body weight lost | 1.61 | 3.16 | – | – | – | – | strong anti-tumor effect | 100 | 100 | 85 | 20 | no body weight lost | -16 | 26 | -13 | 95
